Assay results published in paper doi:10.1101/2020.08.26.267799v1 (biorxiv, 2020).

Target: Human insulin (HI) (Homo sapiens, UniProt P01308)
Assay: ITC, insulin titrated into CBBG, one-site model
Assay type: binding

Sequence of Human insulin (HI) (P01308 25-54): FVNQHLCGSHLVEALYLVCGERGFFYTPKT
Sequence of Human insulin (HI) (P01308 90-110): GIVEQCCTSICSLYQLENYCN

Kd: 12.5 µM
Compound: CCOc1ccc(Nc2ccc(/C(=C3C=C/C(=[N+](/CC)Cc4cccc(S(=O)(=O)[O-])c4)C=C/3C)c3ccc(N(CC)Cc4cccc(S(=O)(=O)O)c4)cc3C)cc2)cc1 [Coomassie Brilliant Blue G-250]
